The numbers were not newly measured in patent US20110135768A1, “DIHYDRO-ISOALPHA ACID AND ACACIA NILOTICA EXTRACT BASED COMPOSITIONS AND METHODS FOR WEIGHT MANAGEMENT” (Metaproteomics, LLC, priority 2009, published 2011), which cites them from elsewhere.

The conditions of the data set: rats, intra-cerebroventricular administration.

Ends that are not written are not given here.

“GLP-1: glucagon-like peptide-1, a 30 amino acid peptide derived from proglucagon gene (HAEGTFTSDVSSYLEGQAAKEFIAWLVKGR; ends and bridges not checked; UniProt P01275 98-127, looked up)”: the body weight entry was “reduce” and the eating result was “inhibit”.
